Measured values reported in the NIST ThermoML archive (doi:10.1021/je060355j).
± gives the expanded uncertainty stated by the source.

Tests used:
[1] = excess molar enthalpy (molar enthalpy of mixing); xn = mol fraction of the nth substance listed; settings: 101.32 kPa, Liquid
[2] = xn = mol fraction of the nth substance listed; settings: 101.32 kPa, Liquid

CCCOC=O [propyl methanoate] + CCCCCC
Settings | excess molar enthalpy [kJ/mol] | mass density [kg/m3]
[1], 291.15 K, x1 = 0.0969 | 0.492 ± 0.0097 | –
[1], 291.15 K, x1 = 0.186 | 0.783 ± 0.014 | –
[1], 291.15 K, x1 = 0.2656 | 0.983 ± 0.017 | –
[1], 291.15 K, x1 = 0.3316 | 1.11 ± 0.019 | –
[1], 291.15 K, x1 = 0.3921 | 1.18 ± 0.02 | –
[1], 291.15 K, x1 = 0.4458 | 1.21 ± 0.02 | –
[1], 291.15 K, x1 = 0.4941 | 1.22 ± 0.02 | –
[1], 291.15 K, x1 = 0.5356 | 1.2 ± 0.02 | –
[1], 291.15 K, x1 = 0.5758 | 1.15 ± 0.019 | –
[1], 291.15 K, x1 = 0.6321 | 1.08 ± 0.018 | –
[1], 291.15 K, x1 = 0.6905 | 0.964 ± 0.017 | –
[1], 291.15 K, x1 = 0.7533 | 0.815 ± 0.014 | –
[1], 291.15 K, x1 = 0.8171 | 0.643 ± 0.012 | –
[1], 291.15 K, x1 = 0.885 | 0.415 ± 0.0087 | –
[1], 291.15 K, x1 = 0.9453 | 0.192 ± 0.0059 | –
[1], 318.15 K, x1 = 0.0848 | 0.473 ± 0.0096 | –
[1], 318.15 K, x1 = 0.1889 | 0.846 ± 0.015 | –
[1], 318.15 K, x1 = 0.2934 | 1.12 ± 0.019 | –
[1], 318.15 K, x1 = 0.3854 | 1.28 ± 0.021 | –
[1], 318.15 K, x1 = 0.4624 | 1.34 ± 0.022 | –
[1], 318.15 K, x1 = 0.521 | 1.34 ± 0.022 | –
[1], 318.15 K, x1 = 0.5945 | 1.29 ± 0.022 | –
[1], 318.15 K, x1 = 0.6631 | 1.19 ± 0.02 | –
[1], 318.15 K, x1 = 0.7368 | 1.03 ± 0.018 | –
[1], 318.15 K, x1 = 0.8154 | 0.794 ± 0.014 | –
[1], 318.15 K, x1 = 0.8906 | 0.518 ± 0.01 | –
[1], 318.15 K, x1 = 0.9523 | 0.249 ± 0.007 | –
[2], 291.15 K, x1 = 0.0544 | – | 670.1 ± 2
[2], 291.15 K, x1 = 0.0893 | – | 676 ± 2
[2], 291.15 K, x1 = 0.1509 | – | 687.4 ± 2
[2], 291.15 K, x1 = 0.2001 | – | 696.5 ± 2
[2], 291.15 K, x1 = 0.248 | – | 705.8 ± 2
[2], 291.15 K, x1 = 0.2521 | – | 706.6 ± 2
[2], 291.15 K, x1 = 0.3979 | – | 737.6 ± 2
[2], 291.15 K, x1 = 0.5017 | – | 761.8 ± 2
[2], 291.15 K, x1 = 0.6122 | – | 789.6 ± 2
[2], 291.15 K, x1 = 0.6985 | – | 813.1 ± 2
[2], 291.15 K, x1 = 0.7473 | – | 827 ± 2.1
[2], 291.15 K, x1 = 0.8013 | – | 842.8 ± 2.1
[2], 291.15 K, x1 = 0.8499 | – | 857.8 ± 2.2
[2], 291.15 K, x1 = 0.9057 | – | 875.5 ± 2.2
[2], 291.15 K, x1 = 0.9568 | – | 892.9 ± 2.3
[2], 291.15 K, x1 = 1 | – | 907.8 ± 2.3
[2], 298.15 K, x1 = 0.0787 | – | 668.91 ± 2
[2], 298.15 K, x1 = 0.1478 | – | 681.52 ± 2
[2], 298.15 K, x1 = 0.2237 | – | 695.63 ± 2
[2], 298.15 K, x1 = 0.2941 | – | 709.36 ± 2
[2], 298.15 K, x1 = 0.3597 | – | 722.93 ± 2
[2], 298.15 K, x1 = 0.4297 | – | 738.37 ± 2
[2], 298.15 K, x1 = 0.4878 | – | 751.68 ± 2
[2], 298.15 K, x1 = 0.5453 | – | 765.36 ± 2
[2], 298.15 K, x1 = 0.6019 | – | 779.74 ± 2
[2], 298.15 K, x1 = 0.6599 | – | 794.74 ± 2
[2], 298.15 K, x1 = 0.7154 | – | 810 ± 2.1
[2], 298.15 K, x1 = 0.765 | – | 824.15 ± 2.1
[2], 298.15 K, x1 = 0.812 | – | 838.34 ± 2.1
[2], 298.15 K, x1 = 0.8656 | – | 854.66 ± 2.2
[2], 298.15 K, x1 = 0.921 | – | 872.18 ± 2.3
[2], 298.15 K, x1 = 0.9567 | – | 884.05 ± 2.3
[2], 298.15 K, x1 = 1 | – | 899.08 ± 2.3
[2], 308.15 K, x1 = 0.0693 | – | 657.5 ± 2.1
[2], 308.15 K, x1 = 0.1125 | – | 665.1 ± 2.1
[2], 308.15 K, x1 = 0.1993 | – | 680.76 ± 2.1
[2], 308.15 K, x1 = 0.3036 | – | 701.12 ± 2
[2], 308.15 K, x1 = 0.3975 | – | 720.81 ± 2
[2], 308.15 K, x1 = 0.5069 | – | 745.56 ± 2
[2], 308.15 K, x1 = 0.5902 | – | 765.82 ± 2
[2], 308.15 K, x1 = 0.7035 | – | 795.66 ± 2.1
[2], 308.15 K, x1 = 0.8034 | – | 824.55 ± 2.2
[2], 308.15 K, x1 = 0.9002 | – | 854.72 ± 2.2
[2], 308.15 K, x1 = 0.9482 | – | 870.44 ± 2.3
[2], 308.15 K, x1 = 1 | – | 888.36 ± 2.4
[2], 318.15 K, x1 = 0.0796 | – | 648.93 ± 2.1
[2], 318.15 K, x1 = 0.1547 | – | 661.76 ± 2.1
[2], 318.15 K, x1 = 0.2278 | – | 674.93 ± 2.1
[2], 318.15 K, x1 = 0.2909 | – | 687.08 ± 2.1
[2], 318.15 K, x1 = 0.3611 | – | 701.46 ± 2.1
[2], 318.15 K, x1 = 0.4273 | – | 715.75 ± 2.1
[2], 318.15 K, x1 = 0.487 | – | 729.26 ± 2.1
[2], 318.15 K, x1 = 0.5747 | – | 750.24 ± 2.1
[2], 318.15 K, x1 = 0.6031 | – | 757.34 ± 2.1
[2], 318.15 K, x1 = 0.6617 | – | 772.47 ± 2.1
[2], 318.15 K, x1 = 0.7118 | – | 785.91 ± 2.1
[2], 318.15 K, x1 = 0.7661 | – | 801.18 ± 2.2
[2], 318.15 K, x1 = 0.8123 | – | 814.59 ± 2.2
[2], 318.15 K, x1 = 0.8602 | – | 829.22 ± 2.2
[2], 318.15 K, x1 = 0.9109 | – | 845.53 ± 2.3
[2], 318.15 K, x1 = 0.9581 | – | 860.97 ± 2.3
[2], 318.15 K, x1 = 1 | – | 875.32 ± 2.4
